Data on 39 compounds can be found in US11566022B2, “3-(5-methoxy-1-oxoisoindolin-2-yl)piperidine-2,6-dione derivatives and uses thereof” (NOVARTIS AG, priority 2019, dated 2023).

Molecules are shown by their SMILES. Bounds are passed on as bounds.

The target in the assay is HiBit-WIZ fusion protein (Homo sapiens, UniProt O95785+Q96SW2). As to the kind of experiment: Quantification of WIZ protein levels in HiBit tag fusion protein assay (WIZ HiBit assay in 293T cells). The format is cell-based. On the set-up: Dmax: dose or concentration left out as unconfirmed. The note with it: for Dmax / remaining activity at up to 25 µM: HEK-293T, 293T cells; for Dmax: 100 minus Amax, read-out: % degradation of WIZ (100-Amax); for remaining activity at up to 25 µM: DMSO-normalized, curve-fitted percentage of WIZ-HiBit remaining at 25 uM, read-out: WIZ Amax; for DC50: WIZ HiBit assay in 293T cells, 10-point, 5-fold dose response, highest concentration 25 μM, about 18 hours, read-out: WIZ AC50. For orientation: HiBiT is a short tag that completes a luciferase, so light tracks the accessible tagged protein.
HiBit-WIZ fusion protein, sequence (O95785 whole entry, the tested form may be a part): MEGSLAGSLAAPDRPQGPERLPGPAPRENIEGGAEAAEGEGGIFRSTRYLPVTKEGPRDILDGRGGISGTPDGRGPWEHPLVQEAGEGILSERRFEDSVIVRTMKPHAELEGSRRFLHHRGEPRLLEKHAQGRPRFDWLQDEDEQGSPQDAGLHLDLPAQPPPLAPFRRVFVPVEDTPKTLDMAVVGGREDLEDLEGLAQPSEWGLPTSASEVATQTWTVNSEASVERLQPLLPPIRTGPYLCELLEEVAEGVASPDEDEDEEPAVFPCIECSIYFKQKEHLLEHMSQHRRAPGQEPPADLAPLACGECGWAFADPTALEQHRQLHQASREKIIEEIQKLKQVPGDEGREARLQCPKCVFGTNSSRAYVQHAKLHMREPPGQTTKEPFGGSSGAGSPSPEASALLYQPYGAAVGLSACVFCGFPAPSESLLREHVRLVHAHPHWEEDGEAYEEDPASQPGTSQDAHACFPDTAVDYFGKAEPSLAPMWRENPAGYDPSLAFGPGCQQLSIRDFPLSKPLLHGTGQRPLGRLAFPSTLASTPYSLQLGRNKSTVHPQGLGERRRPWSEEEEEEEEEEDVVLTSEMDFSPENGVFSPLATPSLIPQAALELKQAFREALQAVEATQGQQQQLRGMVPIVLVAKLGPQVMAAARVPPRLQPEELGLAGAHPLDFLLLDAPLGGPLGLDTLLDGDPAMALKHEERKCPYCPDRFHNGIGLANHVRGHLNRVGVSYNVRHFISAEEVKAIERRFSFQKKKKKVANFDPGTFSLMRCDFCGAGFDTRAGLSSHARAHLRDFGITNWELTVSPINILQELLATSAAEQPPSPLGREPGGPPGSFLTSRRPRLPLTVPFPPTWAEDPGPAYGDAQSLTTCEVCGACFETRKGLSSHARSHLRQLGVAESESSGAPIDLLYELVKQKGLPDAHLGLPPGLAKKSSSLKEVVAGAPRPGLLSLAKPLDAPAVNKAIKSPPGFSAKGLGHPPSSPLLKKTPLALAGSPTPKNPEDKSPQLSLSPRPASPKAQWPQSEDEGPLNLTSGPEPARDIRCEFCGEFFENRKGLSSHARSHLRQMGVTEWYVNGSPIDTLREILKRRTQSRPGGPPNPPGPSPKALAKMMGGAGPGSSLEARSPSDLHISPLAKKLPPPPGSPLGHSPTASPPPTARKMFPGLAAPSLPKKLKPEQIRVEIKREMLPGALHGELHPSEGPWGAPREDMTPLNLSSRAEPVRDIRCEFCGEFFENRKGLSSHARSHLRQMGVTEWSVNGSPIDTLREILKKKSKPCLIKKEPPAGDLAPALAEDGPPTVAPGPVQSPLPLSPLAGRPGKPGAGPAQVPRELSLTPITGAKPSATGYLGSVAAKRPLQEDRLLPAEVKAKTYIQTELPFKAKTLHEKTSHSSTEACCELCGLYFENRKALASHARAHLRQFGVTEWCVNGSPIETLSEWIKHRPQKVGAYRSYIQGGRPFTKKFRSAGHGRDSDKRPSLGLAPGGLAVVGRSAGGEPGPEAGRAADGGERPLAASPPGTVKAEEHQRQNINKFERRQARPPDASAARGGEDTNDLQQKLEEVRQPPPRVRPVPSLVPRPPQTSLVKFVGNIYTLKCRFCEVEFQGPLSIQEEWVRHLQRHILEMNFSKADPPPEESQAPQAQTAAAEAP
HiBit-WIZ fusion protein, sequence (Q96SW2 whole entry, the tested form may be a part): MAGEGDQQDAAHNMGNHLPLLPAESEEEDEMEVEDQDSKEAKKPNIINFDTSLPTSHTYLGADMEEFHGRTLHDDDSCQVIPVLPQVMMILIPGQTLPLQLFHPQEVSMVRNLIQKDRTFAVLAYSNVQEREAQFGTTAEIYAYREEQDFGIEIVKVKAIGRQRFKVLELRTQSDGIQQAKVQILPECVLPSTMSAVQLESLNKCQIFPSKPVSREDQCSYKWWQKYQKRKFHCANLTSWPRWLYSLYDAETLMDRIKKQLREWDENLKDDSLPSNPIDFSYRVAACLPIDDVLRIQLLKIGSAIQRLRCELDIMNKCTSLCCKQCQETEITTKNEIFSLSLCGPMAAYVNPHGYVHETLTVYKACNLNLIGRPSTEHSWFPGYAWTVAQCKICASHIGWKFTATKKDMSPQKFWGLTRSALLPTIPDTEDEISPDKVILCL
HiBit-WIZ fusion protein, sequence (Q16531 whole entry partner, the tested form may be a part): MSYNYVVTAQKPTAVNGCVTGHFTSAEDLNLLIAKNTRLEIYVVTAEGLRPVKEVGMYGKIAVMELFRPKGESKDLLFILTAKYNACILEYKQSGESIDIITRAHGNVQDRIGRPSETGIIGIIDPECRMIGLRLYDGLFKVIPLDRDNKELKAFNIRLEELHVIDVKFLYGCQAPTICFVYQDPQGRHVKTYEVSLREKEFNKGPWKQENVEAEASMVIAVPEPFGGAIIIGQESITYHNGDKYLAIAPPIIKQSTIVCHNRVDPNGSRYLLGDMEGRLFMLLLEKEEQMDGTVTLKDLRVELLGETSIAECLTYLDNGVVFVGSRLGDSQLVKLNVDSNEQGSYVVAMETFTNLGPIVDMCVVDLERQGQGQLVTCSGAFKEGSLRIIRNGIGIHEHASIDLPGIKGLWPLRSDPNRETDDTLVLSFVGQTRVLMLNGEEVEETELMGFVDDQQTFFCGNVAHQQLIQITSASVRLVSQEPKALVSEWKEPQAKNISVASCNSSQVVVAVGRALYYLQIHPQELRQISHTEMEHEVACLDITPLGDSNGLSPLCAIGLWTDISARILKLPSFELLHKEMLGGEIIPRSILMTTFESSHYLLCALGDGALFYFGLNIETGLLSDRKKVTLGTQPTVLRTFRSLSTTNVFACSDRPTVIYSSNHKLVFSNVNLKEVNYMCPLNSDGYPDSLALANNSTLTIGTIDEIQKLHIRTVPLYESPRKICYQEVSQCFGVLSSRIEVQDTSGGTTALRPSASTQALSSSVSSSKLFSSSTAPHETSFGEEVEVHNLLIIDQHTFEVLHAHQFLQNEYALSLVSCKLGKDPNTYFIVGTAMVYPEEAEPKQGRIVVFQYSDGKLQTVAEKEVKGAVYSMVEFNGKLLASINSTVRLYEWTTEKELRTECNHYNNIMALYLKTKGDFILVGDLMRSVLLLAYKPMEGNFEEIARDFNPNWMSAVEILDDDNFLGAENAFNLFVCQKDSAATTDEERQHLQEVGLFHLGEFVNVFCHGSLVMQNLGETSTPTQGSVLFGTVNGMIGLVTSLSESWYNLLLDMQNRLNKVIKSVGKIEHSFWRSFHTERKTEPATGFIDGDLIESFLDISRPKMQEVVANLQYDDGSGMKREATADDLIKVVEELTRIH

As to `O=C1CCC(N2Cc3cc(OC[C@@H]4CCCCN4C(=O)[C@H]4CCN(Cc5ccccc5)C4)ccc3C2=O)C(=O)N1` (stereo partly drawn) [Compound I-72cy], the Dmax stood at 15.2%, the remaining activity at up to 25 µM came out at 84.8% and the DC50 is above 25 µM.

Consider `COc1ccc(C(=O)N2CCCC[C@H]2COc2ccc3c(c2)CN(C2CCC(=O)NC2=O)C3=O)cc1OCc1ccccc1` (stereo partly drawn) [Compound I-72d], for which the Dmax was determined as 71.6%, the remaining activity at up to 25 µM turned out to be 28.4% and the DC50 was found to be 1.9 µM.

Turning to `CN1CCCC1C(=O)N1CCCC[C@@H]1COc1ccc2c(c1)CN(C1CCC(=O)NC1=O)C2=O` (stereo partly drawn) [Compound I-72dd], the Dmax was determined as 19.5%, the remaining activity at up to 25 µM is 80.5% and the DC50 was above 25 µM.

`CC(C)n1cc(C(=O)N2CCCC[C@H]2COc2ccc3c(c2)CN(C2CCC(=O)NC2=O)C3=O)cn1` (stereo partly drawn) [Compound I-72dg]: the Dmax came to 21.1%, the remaining activity at up to 25 µM amounted to 78.9% and the DC50 was above 25 µM.

For `O=C1CCC(N2Cc3cc(OC[C@@H]4CCCCN4C(=O)C=C4CCCCC4)ccc3C2=O)C(=O)N1` (stereo partly drawn) [Compound I-72dm], the Dmax stood at 11.5%, the remaining activity at up to 25 µM was determined as 88.5% and the DC50 is above 25 µM.

For the compound `C[C@H]1CC[C@H](CC(=O)N2CCCC[C@H]2COc2ccc3c(c2)CN(C2CCC(=O)NC2=O)C3=O)CC1` (stereo partly drawn) [Compound I-72do], the Dmax worked out at 23.3%, the remaining activity at up to 25 µM was 76.7% and the DC50 is above 25 µM.

Consider `CC(C)c1cc(C(=O)N2CCCC[C@H]2COc2ccc3c(c2)CN(C2CCC(=O)NC2=O)C3=O)on1` (stereo partly drawn) [Compound I-72dp], for which the Dmax was determined as 30.5%, the remaining activity at up to 25 µM turned out to be 69.5% and the DC50 was above 25 µM.

Turning to `O=C1CCC(N2Cc3cc(OC[C@@H]4CCCCN4C(=O)c4ncn(-c5ccccc5)n4)ccc3C2=O)C(=O)N1` (stereo partly drawn) [Compound I-72dt], the Dmax is 47.2%, the remaining activity at up to 25 µM was 52.8% and the DC50 is above 25 µM.

Take `O=C1CCC(N2Cc3cc(OC[C@@H]4CCCCN4C(=O)c4csc(-c5ccccc5)n4)ccc3C2=O)C(=O)N1` (stereo partly drawn) [Compound I-72du]: the Dmax is 23.6%, the remaining activity at up to 25 µM worked out at 76.4% and the DC50 is above 25 µM.

For `O=C1CCC(N2Cc3cc(OC[C@@H]4CCCCN4C(=O)c4ccccc4OC(F)(F)F)ccc3C2=O)C(=O)N1` (stereo partly drawn) [Compound I-72dv], the Dmax is 13.3%, the remaining activity at up to 25 µM is 86.7% and the DC50 is above 25 µM.

Turning to `O=C1CCC(N2Cc3cc(OC[C@@H]4CCCCN4C(=O)c4csc(N5CCOCC5)n4)ccc3C2=O)C(=O)N1` (stereo partly drawn) [Compound I-72e], the Dmax was determined as 17.1%, the remaining activity at up to 25 µM amounted to 82.9% and the DC50 was above 25 µM.

On to `O=C1CCC(N2Cc3cc(OC[C@@H]4CCCCN4C(=O)[C@@H]4CCC(=O)N4Cc4ccccc4)ccc3C2=O)C(=O)N1` (stereo partly drawn) [Compound I-72ed], for which the Dmax was found to be 4.6%, the remaining activity at up to 25 µM was found to be 95.4% and the DC50 is above 25 µM.

Turning to `COc1c(F)cc(C(=O)N2CCCC[C@H]2COc2ccc3c(c2)CN(C2CCC(=O)NC2=O)C3=O)cc1F` (stereo partly drawn) [Compound I-72eg], the Dmax worked out at 72.1%, the remaining activity at up to 25 µM was found to be 27.9% and the DC50 amounted to 2.25 µM.

As for `CCc1cc(C(=O)N2CCCC[C@H]2COc2ccc3c(c2)CN(C2CCC(=O)NC2=O)C3=O)on1` (stereo partly drawn) [Compound I-72ek], the Dmax turned out to be 21%, the remaining activity at up to 25 µM turned out to be 79% and the DC50 was above 25 µM.

Take `O=C1CCC(N2Cc3cc(OC[C@@H]4CCCCN4C(=O)CCC(=O)N4CCOCC4)ccc3C2=O)C(=O)N1` (stereo partly drawn) [Compound I-72eo]: the Dmax turned out to be 4.8%, the remaining activity at up to 25 µM came to 95.2% and the DC50 is above 25 µM.

For `Cc1cc(-c2onc(C)c2C(=O)N2CCCC[C@H]2COc2ccc3c(c2)CN(C2CCC(=O)NC2=O)C3=O)no1` (stereo partly drawn) [Compound I-72ep], the Dmax came out at 77.8%, the remaining activity at up to 25 µM was 22.2% and the DC50 worked out at 1.35 µM.

Regarding `CC#CCCOc1ccc(C(=O)N2CCCC[C@H]2COc2ccc3c(c2)CN(C2CCC(=O)NC2=O)C3=O)cc1` (stereo partly drawn) [Compound I-72ew], the Dmax is 54.9%, the remaining activity at up to 25 µM was determined as 45.1% and the DC50 was determined as 14.6 µM.

In the case of `CC(C)n1nccc1C(=O)N1CCCC[C@H]1COc1ccc2c(c1)CN(C1CCC(=O)NC1=O)C2=O` (stereo partly drawn) [Compound I-72ez], the Dmax stood at 0%, the remaining activity at up to 25 µM came out at 100% and the DC50 is above 25 µM.

With `O=C1CCC(N2Cc3cc(OC[C@@H]4CCCCN4C(=O)[C@@H]4CCCCN4C4CC4)ccc3C2=O)C(=O)N1` (stereo partly drawn) [Compound I-72f], the Dmax was 0.9%, the remaining activity at up to 25 µM amounted to 99.1% and the DC50 was above 25 µM.

Take `Cc1ccnc(-c2cc(C(=O)N3CCCC[C@H]3COc3ccc4c(c3)CN(C3CCC(=O)NC3=O)C4=O)ccn2)c1` (stereo partly drawn) [Compound I-72fa]: the Dmax was 5.1%, the remaining activity at up to 25 µM turned out to be 94.9% and the DC50 was above 25 µM.

Consider `CC(C)N1CCC(CC(=O)N2CCCC[C@H]2COc2ccc3c(c2)CN(C2CCC(=O)NC2=O)C3=O)CC1` (stereo partly drawn) [Compound I-72fe], for which the Dmax amounted to 18.5%, the remaining activity at up to 25 µM was found to be 81.5% and the DC50 is above 25 µM.

In the case of `O=C1CCC(N2Cc3cc(OC[C@@H]4CCCCN4C(=O)c4cnc(N5CCCCC5)s4)ccc3C2=O)C(=O)N1` (stereo partly drawn) [Compound I-72fi], the Dmax was determined as 70.2%, the remaining activity at up to 25 µM worked out at 29.8% and the DC50 was 2.05 µM.

Take `O=C1CCC(N2Cc3cc(OC[C@@H]4CCCCN4C(=O)c4ccc(-c5ccc(F)cc5)cn4)ccc3C2=O)C(=O)N1` (stereo partly drawn) [Compound I-72fj]: the Dmax turned out to be 63.7%, the remaining activity at up to 25 µM was determined as 36.3% and the DC50 was 3.91 µM.

Take `O=C1CCC(N2Cc3cc(OC[C@@H]4CCCCN4C(=O)[C@H]4CCOC4)ccc3C2=O)C(=O)N1` (stereo partly drawn) [Compound I-72fn]: the Dmax was 2.6%, the remaining activity at up to 25 µM came out at 97.4% and the DC50 was above 25 µM.

As for `Cc1nc(C(=O)N2CCCC[C@H]2COc2ccc3c(c2)CN(C2CCC(=O)NC2=O)C3=O)c(C)s1` (stereo partly drawn) [Compound I-72fp], the Dmax is 9.5%, the remaining activity at up to 25 µM came to 90.5% and the DC50 was above 25 µM.

As to `O=C1CCC(N2Cc3cc(OC[C@@H]4CCCCN4C(=O)c4snnc4-c4ccccc4)ccc3C2=O)C(=O)N1` (stereo partly drawn) [Compound I-72fq], the Dmax worked out at 0.3%, the remaining activity at up to 25 µM came to 99.7% and the DC50 is above 25 µM.

Turning to `O=C1CCC(N2Cc3cc(OC[C@@H]4CCCCN4C(=O)CCCn4cnnc4)ccc3C2=O)C(=O)N1` (stereo partly drawn) [Compound I-72fv], the Dmax stood at 1.1%, the remaining activity at up to 25 µM was determined as 98.9% and the DC50 was above 25 µM.

For the compound `COc1ccc(C(C)(C)C(=O)N2CCCC[C@H]2COc2ccc3c(c2)CN(C2CCC(=O)NC2=O)C3=O)cc1` (stereo partly drawn) [Compound I-72fz], the Dmax amounted to 9.1%, the remaining activity at up to 25 µM worked out at 90.9% and the DC50 was above 25 µM.

In the case of `O=C1CCC(N2Cc3cc(OC[C@@H]4CCCCN4C(=O)c4cccnc4N4CCCC4)ccc3C2=O)C(=O)N1` (stereo partly drawn) [Compound I-72gb], the Dmax was found to be 23.9%, the remaining activity at up to 25 µM turned out to be 76.1% and the DC50 is above 25 µM.

Take `CC1(c2ccc(C(=O)N3CCCC[C@H]3COc3ccc4c(c3)CN(C3CCC(=O)NC3=O)C4=O)cc2)COC1` (stereo partly drawn) [Compound I-72gc]: the Dmax is 58.3%, the remaining activity at up to 25 µM was found to be 41.7% and the DC50 is 10.1 µM.

On to `CC(C)c1cc(C(=O)N2CCCC[C@H]2COc2ccc3c(c2)CN(C2CCC(=O)NC2=O)C3=O)n(C)n1` (stereo partly drawn) [Compound I-72gd], for which the Dmax is 80.1%, the remaining activity at up to 25 µM is 19.9% and the DC50 worked out at 0.919 µM.

On to `CN(C)c1cccc(C(=O)N2CCCC[C@H]2COc2ccc3c(c2)CN(C2CCC(=O)NC2=O)C3=O)c1` (stereo partly drawn) [Compound I-72gg], for which the Dmax stood at 24%, the remaining activity at up to 25 µM is 76% and the DC50 is above 25 µM.

In the case of `N#Cc1ccc(CCC(=O)N2CCCC[C@H]2COc2ccc3c(c2)CN(C2CCC(=O)NC2=O)C3=O)cc1` (stereo partly drawn) [Compound I-72gh], the Dmax was 10.9%, the remaining activity at up to 25 µM came out at 89.1% and the DC50 is above 25 µM.

Consider `CC(C)c1ccccc1C(=O)N1CCCC[C@H]1COc1ccc2c(c1)CN(C1CCC(=O)NC1=O)C2=O` (stereo partly drawn) [Compound I-72gi], for which the Dmax was 14.9%, the remaining activity at up to 25 µM came out at 85.1% and the DC50 was above 25 µM.

As to `O=C1CCC(N2Cc3cc(OC[C@@H]4CCCCN4C(=O)C4CCCOC4)ccc3C2=O)C(=O)N1` (stereo partly drawn) [Compound I-72gj], the Dmax worked out at 2.3%, the remaining activity at up to 25 µM was 97.7% and the DC50 was above 25 µM.

Turning to `O=C1CCC(N2Cc3cc(OC[C@@H]4CCCCN4C(=O)CCc4c[nH]cn4)ccc3C2=O)C(=O)N1` (stereo partly drawn) [Compound I-72gk], the Dmax was found to be 6.5%, the remaining activity at up to 25 µM came out at 93.5% and the DC50 was above 25 µM.

As to `COc1ccc(C(=O)N2CCCC[C@H]2COc2ccc3c(c2)CN(C2CCC(=O)NC2=O)C3=O)nn1` (stereo partly drawn) [Compound I-72gm], the Dmax worked out at 6.8%, the remaining activity at up to 25 µM is 93.2% and the DC50 was above 25 µM.

`COc1cc(C(=O)N2CCCC[C@H]2COc2ccc3c(c2)CN(C2CCC(=O)NC2=O)C3=O)c(F)cn1` (stereo partly drawn) [Compound I-72gn]: the Dmax was 26.4%, the remaining activity at up to 25 µM turned out to be 73.6% and the DC50 is above 25 µM.

Take `Cc1onc(-c2ccccc2)c1CC(=O)N1CCCC[C@H]1COc1ccc2c(c1)CN(C1CCC(=O)NC1=O)C2=O` (stereo partly drawn) [Compound I-72gp]: the Dmax was 14.4%, the remaining activity at up to 25 µM came out at 85.6% and the DC50 was above 25 µM.
